According to patent publication US8629100B2, “Method of inhibiting clostridium difficile by administration of oritavancin” (The Medicines Company, priority 2007, dated 2014):
≈ marks a conversion by molar mass, not a printed value.

Legend:
[1] = system: genotypically distinct C. difficile (n = 33); test: Agar incorporation MIC; format: cell-based; conditions: for MIC range / MIC90: AI; for MIC90 / MIC: Clostridioides difficile
Description: Thirty-three genotypically distinct (by PCR ribotyping) C. difficile isolates were selected from a library of strains at the Leeds General Infirmary (Leeds, UK). Representative isolates of epidemic C. difficile PCR ribotypes 001, 106 and 027 were included in the panel. Control isolates of Staphylococcus aureus ATCC 29213, Enterococcus faecalis ATCC 29212 and Bacteroides fragilis ATCC 25285 were included in all MIC determinations to ensure procedure accuracy.
Agar incorporation MICs were determined based on the method of Freeman and Wilcox (J Antimicrob Chemother 2001; 47: 244-6). Briefly, bacteria were cultured in Schaedler's anaerobic broth (Oxoid, Basingstoke, UK) at 37° C. for 24 h in an anaerobic cabinet (Don Whitley Scientific, Shipley). […] Oritavancin was prepared in 0.002% P80. All antimicrobial solutions were sterilized by filtration through 0.22 um syringe filters. […] Wilkins Chalgren agar (Oxoid) incorporating doubling dilutions of antimicrobial agents (0.03-16 mg/L) was prepared with and without 0.002% P80 and with and without 2% lysed horse blood (E&O Labs, Bonneybridge, UK). All media and diluents were pre-reduced overnight in the anaerobic cabinet. Bacterial cultures were diluted in sterile saline and inoculated onto the surface of agar incorporation agar plates using a multipoint inoculator (˜10^4 cfu). Agar incorporation plates were incubated anaerobically for 48 h. MIC endpoints were read as the lowest concentration of antimicrobial agent where there is no apparent growth (disregarding a visible haze of growth or a single colony).

[2] = system: C. difficile (CD) ATCC 43255; test: Hamster model of CDI, oral administration; format: in vivo, Syrian golden hamsters; conditions: for Toxins A and B in caecal contents: ORI 100 mg/kg (PEG400) on Day 20 PI, VA 50 mg/kg once daily
[3] = system: genotypically distinct C. difficile (n = 33); test: Broth macrodilution MIC; format: cell-based; conditions: for MIC range / MIC90 / MIC: BM, broth macrodilution; for MIC90 / MIC: Clostridioides difficile; for MIC: read-out: GEO MIC
[4] = system: C. difficile vegetative cultures and spores; test: Spiral gradient endpoint analysis MIC; format: cell-based
Method: C. difficile PCR ribotypes 001, 106 and 027 were inoculated onto Columbia blood agar and incubated anaerobically (37° C.) for 10 d. Growth was harvested into sterile saline and alcohol shocked in an equal volume of 100% ethanol for 1 h. Alcohol-shocked spore suspensions were mixed by vortexing and sonicated for 5 minutes at room temperature. C. difficile phase-bright (non-germinated) spores were separated from phase-dark (germinated) spores and cellular debris by density gradient centrifugation (4000 rpm 15 minutes) following layering onto 50% (v/v in phosphate buffered saline) Urografin 370 (Schering, Germany). The density gradient centrifugation step was performed twice. Pellets of purified spores were re-suspended in sterile saline (1 mL per 10 Columbia blood agar plates harvested). Percentage phase-bright spores, phase-dark spores and vegetative cells were recorded using phase-contrast microscopy (×100 magnification).
A spiral plater (WASP2, Don Whitley Scientific, UK) was used to apply a logarithmic antibiotic gradient onto the surface of pre-dried (37° C. 20 minutes) Brazier's agar (pH 7). Agar with logarithmic antimicrobial gradients applied to their surface remained at room temperature for 1 h to allow the antimicrobial agent to adsorb into the agar. C. difficile vegetative cultures and spores (˜10^7 cfu/mL) were inoculated onto the agar surface (FIG. 1) with a sterile cotton swab and incubated anaerobically (37° C., 24 h). D-values were measured (in mm) and converted to MICs (Paton, J. H.1990. Int J Exp Clin Chemother. 9, 31-38).

[5] = read-out: GEO MIC, AI, P80 no LHB
[6] = read-out: GEO MIC, AI, P80 with LHB
[7] = read-out: GEO MIC, AI, no P80 no LHB
[8] = read-out: GEO MIC, AI, no P80 with LHB

| Compound | MIC range ([1]; P80 no LHB) | MIC range ([1]; P80 with LHB) | MIC range ([1]; no P80 no LHB) | MIC range ([1]; no P80 with LHB) | MIC90 ([1]; P80 no LHB) | MIC90 ([1]; P80 with LHB) | MIC90 ([1]; no P80 no LHB) | MIC90 ([1]; no P80 with LHB) | MIC [1, 5] | MIC [1, 6] | MIC [1, 7] | MIC [1, 8] | Toxins A and B in caecal contents [2] | MIC range [3] | MIC90 [3] | MIC [3] | further results |
| --- | --- | --- | --- | --- | --- | --- | --- | --- | --- | --- | --- | --- | --- | --- | --- | --- | --- |
| CN[C@H](CC(C)C)C(=O)N[C@H]1C(=O)N[C@@H](CC(N)=O)C(=O)N[C@H]2C(=O)N[C@H]3C(=O)N[C@H](C(=O)N[C@H](C(=O)O)c4cc(O)cc(O)c4-c4cc3ccc4O)[C@H](O[C@H]3C[C@](C)(N)[C@@H](O)[C@H](C)O3)c3ccc(c(Cl)c3)Oc3cc2cc(c3O[C@@H]2O[C@H](CO)[C@@H](O)[C@H](O)[C@H]2O[C@H]2C[C@](C)(NCc3ccc(-c4ccc(Cl)cc4)cc3)[C@@H](O)[C@H](C)O2)Oc2ccc(cc2Cl)[C@H]1O [oritavancin, N-(4-(4-chlorophenyl)benzyl)A82846B] | 2 to 4 µg/mL | 1 to 4 µg/mL | 2 to 4 µg/mL | 0.5 to 4 µg/mL | 4 µg/mL (≈ 2.23 µM) | 4 µg/mL (≈ 2.23 µM) | 4 µg/mL (≈ 2.23 µM) | 2 µg/mL (≈ 1.12 µM) | 2.7 µg/mL (≈ 1.51 µM) | 1.58 µg/mL (≈ 0.881 µM) | 2.33 µg/mL (≈ 1.3 µM) | 1.72 µg/mL (≈ 0.959 µM) | undetectable | 0.06 to 1 µg/mL | 1 µg/mL (≈ 0.558 µM) | 0.31 µg/mL (≈ 0.173 µM) | Survival up to 20 days PI ([2]; 100 mg/kg once daily oral from Day 2 for 5 days, formulated in PEG400): All the animals treated with ORI survived; CD vegetative and spore cells in caecal content ([2]; 20 days PI, formulated in PEG400, LOD 1.47 (TC) and 1.77 (spores) Log 10 CFU/g): undetectable; Broth macrodilution MICs lower than agar incorporation MICs [3]: 2- to 4 fold; Broth macrodilution geometric mean MICs lower than those for metronidazole [3]: ~2 fold; Broth macrodilution geometric mean MICs lower than those for vancomycin [3]: ~5 fold; Tested isolates more susceptible (≧2 doubling dilutions) than to vancomycin [3]: 76%; MICs against C. difficile spores lower than against vegetative cells ([4]; Brazier's agar pH 7, 24 h): 5-13 fold |
| CN[C@H](CC(C)C)C(=O)N[C@H]1C(=O)N[C@@H](CC(N)=O)C(=O)N[C@H]2C(=O)N[C@H]3C(=O)N[C@H](C(=O)N[C@H](C(=O)O)c4cc(O)cc(O)c4-c4cc3ccc4O)[C@H](O)c3ccc(c(Cl)c3)Oc3cc2cc(c3O[C@@H]2O[C@H](CO)[C@@H](O)[C@H](O)[C@H]2O[C@H]2C[C@](C)(N)[C@H](O)[C@H](C)O2)Oc2ccc(cc2Cl)[C@H]1O [vancomycin] | 1 to 4 µg/mL | 0.5 to 2 µg/mL | 0.5 to 2 µg/mL | 1 to 4 µg/mL | 2 µg/mL (≈ 1.38 µM) | 1 µg/mL (≈ 0.69 µM) | 2 µg/mL (≈ 1.38 µM) | 2 µg/mL (≈ 1.38 µM) | 1.3 µg/mL (≈ 0.897 µM) | 1 µg/mL (≈ 0.69 µM) | 1.51 µg/mL (≈ 1.04 µM) | 1.35 µg/mL (≈ 0.932 µM) | High level | 0.5 to 2 µg/mL | 2 µg/mL (≈ 1.38 µM) | 1.58 µg/mL (≈ 1.09 µM) | MICs for C. difficile vegetative cells versus spores ([4]; data not shown): did not differ substantially |
